System: HCT116 colorectal cancer cells
Test: Cisplatin sensitization assay (96 h cell viability MTS);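 also: compound concentration needed to lower the Cisplatin-alone IC50 by a set fold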
Format: cell-based
Details: 96 h MTS, compound plus Cisplatin
In short: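 Test compound and cisplatin were added together as a full matrix of 2-fold serial dilutions, each from a top final concentration of 10 μM. Cells were incubated 96 h at 37° C in 5% CO2, then viability was read by MTS after a further 1 h incubation.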

Question: For `N#CCc1cnc2c(C(=O)Nc3cnccc3OC3CCCC3)c(N)nn2c1` [I-O-43, 2-amino-6-(cyanomethyl)-N-(4-(cyclopentyloxy)pyridin-3-yl)pyrazolo[1,5-a]pyrimidine-3-carboxamide], which “Cisplatin Sensitization Assay” value is on record?
Answer: +++ (Compounds with a Cisplatin sensitization value of <0.02 μM are marked with “+++.”)

Question: With `Nc1nn2cc(F)cnc2c1C(=O)Nc1cnccc1OC1CC[S+]([O-])CC1` (centres unmarked) [I-O-44, 2-amino-6-fluoro-N-(4-((1-oxidotetrahydro-2H-thiopyran-4-yl)oxy)pyridin-3-yl)pyrazolo[1,5-a]pyrimidine-3-carboxamide] as the molecule, how does the “Cisplatin Sensitization Assay” value read?
Answer: ++ (Compounds with a Cisplatin sensitization value >0.02 μM but <0.2 μM are marked with “++.”)

Question: With `Nc1nn2cc(F)cnc2c1C(=O)Nc1cnccc1OC1CCS(=O)(=O)CC1` [I-O-45, 2-amino-N-(4-((1,1-dioxidotetrahydro-2H-thiopyran-4-yl)oxy)pyridin-3-yl)-6-fluoropyrazolo[1,5-a]pyrimidine-3-carboxamide] as the molecule, how does the “Cisplatin Sensitization Assay” value read?
Answer: +++ (Compounds with a Cisplatin sensitization value of <0.02 μM are marked with “+++.”)

Question: Which “Cisplatin Sensitization Assay” value does the source give for `CN1CCC(Oc2c(Cl)cncc2NC(=O)c2c(N)nn3cc(Cl)cnc23)CC1` [I-O-46, 2-amino-6-chloro-N-(5-chloro-4-((1-methylpiperidin-4-yl)oxy)pyridin-3-yl)pyrazolo[1,5-a]pyrimidine-3-carboxamide] here?
Answer: + (Compounds with a Cisplatin sensitization value >0.2 μM but <5 μM are marked with “+.”)

Question: `CN(C)CCOCCOc1ccncc1NC(=O)c1c(N)nn2cc(Cl)cnc12` [I-O-47, 2-amino-6-chloro-N-(4-(2-(2-(dimethylamino)ethoxy)ethoxy)pyridin-3-yl)pyrazolo[1,5-a]pyrimidine-3-carboxamide] was tested. Which “Cisplatin Sensitization Assay” value did it give?
Answer: + (Compounds with a Cisplatin sensitization value >0.2 μM but <5 μM are marked with “+.”)

Question: `CN(C)CCOc1ccncc1NC(=O)c1c(N)nn2cc(Cl)cnc12` [I-O-48, 2-amino-6-chloro-N-(4-(2-(dimethylamino)ethoxy)pyridin-3-yl)pyrazolo[1,5-a]pyrimidine-3-carboxamide] was tested. Which “Cisplatin Sensitization Assay” value did it give?
Answer: ++ (Compounds with a Cisplatin sensitization value >0.02 μM but <0.2 μM are marked with “++.”)

Question: `CN1CCC[C@@H]1COc1ccncc1NC(=O)c1c(N)nn2cc(Cl)cnc12` [I-O-49, (R)-2-amino-6-chloro-N-(4-((1-methylpyrrolidin-2-yl)methoxy)pyridin-3-yl)pyrazolo[1,5-a]pyrimidine-3-carboxamide] was tested. Which “Cisplatin Sensitization Assay” value did it give?
Answer: + (Compounds with a Cisplatin sensitization value >0.2 μM but <5 μM are marked with “+.”)

Question: Which “Cisplatin Sensitization Assay” value does the source give for `CN1CCC[C@H]1COc1ccncc1NC(=O)c1c(N)nn2cc(Cl)cnc12` [I-O-50, (S)-2-amino-6-chloro-N-(4-((1-methylpyrrolidin-2-yl)methoxy)pyridin-3-yl)pyrazolo[1,5-a]pyrimidine-3-carboxamide] here?
Answer: + (Compounds with a Cisplatin sensitization value >0.2 μM but <5 μM are marked with “+.”)

Question: How did the “Cisplatin Sensitization Assay” value turn out when `CN(C)CCCOc1ccncc1NC(=O)c1c(N)nn2cc(Cl)cnc12` [I-O-52, 2-amino-6-chloro-N-(4-(3-(dimethylamino)propoxy)pyridin-3-yl)pyrazolo[1,5-a]pyrimidine-3-carboxamide] was run?
Answer: + (Compounds with a Cisplatin sensitization value >0.2 μM but <5 μM are marked with “+.”)

Question: How did the “Cisplatin Sensitization Assay” value turn out when `Nc1nn2cc(Cl)cnc2c1C(=O)Nc1cnccc1OCCCO` [I-O-53, 2-amino-6-chloro-N-(4-(3-hydroxypropoxy)pyridin-3-yl)pyrazolo[1,5-a]pyrimidine-3-carboxamide] was run?
Answer: +++ (Compounds with a Cisplatin sensitization value of <0.02 μM are marked with “+++.”)

Question: Which “Cisplatin Sensitization Assay” value does the source give for `COCCOc1ccncc1NC(=O)c1c(N)nn2cc(Cl)cnc12` [I-O-55, 2-amino-6-chloro-N-(4-(2-methoxyethoxy)pyridin-3-yl)pyrazolo[1,5-a]pyrimidine-3-carboxamide] here?
Answer: ++ (Compounds with a Cisplatin sensitization value >0.02 μM but <0.2 μM are marked with “++.”)

Question: `CCOc1ccncc1NC(=O)c1c(N)nn2cc(Cl)cnc12` [I-O-56, 2-amino-6-chloro-N-(4-ethoxypyridin-3-yl)pyrazolo[1,5-a]pyrimidine-3-carboxamide] was tested. Which “Cisplatin Sensitization Assay” value did it give?
Answer: +++ (Compounds with a Cisplatin sensitization value of <0.02 μM are marked with “+++.”)

Question: For `COc1ccncc1NC(=O)c1c(N)nn2cc(Cl)cnc12` [I-O-57, 2-amino-6-chloro-N-(4-methoxypyridin-3-yl)pyrazolo[1,5-a]pyrimidine-3-carboxamide], which “Cisplatin Sensitization Assay” value is on record?
Answer: +++ (Compounds with a Cisplatin sensitization value of <0.02 μM are marked with “+++.”)

Question: `Nc1nn2cc(Cl)cnc2c1C(=O)Nc1cnccc1O[C@H]1CCOC1` [I-O-58, (S)-2-amino-6-chloro-N-(4-((tetrahydrofuran-3-yl)oxy)pyridin-3-yl)pyrazolo[1,5-a]pyrimidine-3-carboxamide] was tested. Which “Cisplatin Sensitization Assay” value did it give?
Answer: +++ (Compounds with a Cisplatin sensitization value of <0.02 μM are marked with “+++.”)

Question: Which “Cisplatin Sensitization Assay” value does the source give for `Nc1nn2cc(Cl)cnc2c1C(=O)Nc1cnccc1OCC(F)(F)F` [I-O-59, 2-amino-6-chloro-N-(4-(2,2,2-trifluoroethoxy)pyridin-3-yl)pyrazolo[1,5-a]pyrimidine-3-carboxamide] here?
Answer: +++ (Compounds with a Cisplatin sensitization value of <0.02 μM are marked with “+++.”)

Question: `Nc1nn2cc(Cl)cnc2c1C(=O)Nc1cnccc1OCCN1CCOCC1` [I-O-60, 2-amino-6-chloro-N-(4-(2-morpholinoethoxy)pyridin-3-yl)pyrazolo[1,5-a]pyrimidine-3-carboxamide] was tested. Which “Cisplatin Sensitization Assay” value did it give?
Answer: ++ (Compounds with a Cisplatin sensitization value >0.02 μM but <0.2 μM are marked with “++.”)

Question: How did the “Cisplatin Sensitization Assay” value turn out when `Nc1nn2cc(Cl)cnc2c1C(=O)Nc1cnccc1OC1CCOCC1` [I-O-61, 2-amino-6-chloro-N-(4-((tetrahydro-2H-pyran-4-yl)oxy)pyridin-3-yl)pyrazolo[1,5-a]pyrimidine-3-carboxamide] was run?
Answer: +++ (Compounds with a Cisplatin sensitization value of <0.02 μM are marked with “+++.”)

Question: How did the “Cisplatin Sensitization Assay” value turn out when `Nc1nn2cc(Cl)cnc2c1C(=O)Nc1cnccc1OC1CN2CCC1CC2` (centres unmarked) [I-O-62, 2-amino-6-chloro-N-(4-(quinuclidin-3-yloxy)pyridin-3-yl)pyrazolo[1,5-a]pyrimidine-3-carboxamide] was run?
Answer: +++ (Compounds with a Cisplatin sensitization value of <0.02 μM are marked with “+++.”)

Question: How did the “Cisplatin Sensitization Assay” value turn out when `CN1CC[C@@H](Oc2ccncc2NC(=O)c2c(N)nn3cc(Cl)cnc23)C1` [I-O-63, (R)-2-amino-6-chloro-N-(4-((1-methylpyrrolidin-3-yl)oxy)pyridin-3-yl)pyrazolo[1,5-a]pyrimidine-3-carboxamide] was run?
Answer: ++ (Compounds with a Cisplatin sensitization value >0.02 μM but <0.2 μM are marked with “++.”)

Question: How did the “Cisplatin Sensitization Assay” value turn out when `CN1CCC(Oc2ccncc2NC(=O)c2c(N)nn3cc(Cl)cnc23)CC1` [I-O-64, 2-amino-6-chloro-N-(4-((1-methylpiperidin-4-yl)oxy)pyridin-3-yl)pyrazolo[1,5-a]pyrimidine-3-carboxamide] was run?
Answer: +++ (Compounds with a Cisplatin sensitization value of <0.02 μM are marked with “+++.”)

Question: `Nc1nn2cc(Cl)cnc2c1C(=O)Nc1cnccc1OC1CCCOC1` (centres unmarked) [I-O-65, 2-amino-6-chloro-N-(4-((tetrahydro-2H-pyran-3-yl)oxy)pyridin-3-yl)pyrazolo[1,5-a]pyrimidine-3-carboxamide] was tested. Which “Cisplatin Sensitization Assay” value did it give?
Answer: +++ (Compounds with a Cisplatin sensitization value of <0.02 μM are marked with “+++.”)

Question: How did the “Cisplatin Sensitization Assay” value turn out when `Nc1nn2cc(Cl)cnc2c1C(=O)Nc1cnccc1OCCO` [I-O-66, 2-amino-6-chloro-N-(4-(2-hydroxyethoxy)pyridin-3-yl)pyrazolo[1,5-a]pyrimidine-3-carboxamide] was run?
Answer: + (Compounds with a Cisplatin sensitization value >0.2 μM but <5 μM are marked with “+.”)

Question: How did the “Cisplatin Sensitization Assay” value turn out when `COCCN1CCC[C@H](Oc2ccncc2NC(=O)c2c(N)nn3cc(Cl)cnc23)C1` [I-O-67, (S)-2-amino-6-chloro-N-(4-((1-(2-methoxyethyl)piperidin-3-yl)oxy)pyridin-3-yl)pyrazolo[1,5-a]pyrimidine-3-carboxamide] was run?
Answer: ++ (Compounds with a Cisplatin sensitization value >0.02 μM but <0.2 μM are marked with “++.”)

Question: Which “Cisplatin Sensitization Assay” value does the source give for `CN(C)CCOc1cc(Cl)ncc1NC(=O)c1c(N)nn2cc(Cl)cnc12` [I-O-68, 2-amino-6-chloro-N-(6-chloro-4-(2-(dimethylamino)ethoxy)pyridin-3-yl)pyrazolo[1,5-a]pyrimidine-3-carboxamide] here?
Answer: ++ (Compounds with a Cisplatin sensitization value >0.02 μM but <0.2 μM are marked with “++.”)

Question: `Nc1nn2cc(Cl)cnc2c1C(=O)Nc1cnccc1Oc1cccnc1` [I-O-70, 2-amino-6-chloro-N-(4-(pyridin-3-yloxy)pyridin-3-yl)pyrazolo[1,5-a]pyrimidine-3-carboxamide] was tested. Which “Cisplatin Sensitization Assay” value did it give?
Answer: +++ (Compounds with a Cisplatin sensitization value of <0.02 μM are marked with “+++.”)

Question: Which “Cisplatin Sensitization Assay” value does the source give for `CN(C)CCOc1cc(C(F)(F)F)ncc1NC(=O)c1c(N)nn2cc(Cl)cnc12` [I-O-71, 2-amino-6-chloro-N-(4-(2-(dimethylamino)ethoxy)-6-(trifluoromethyl)pyridin-3-yl)pyrazolo[1,5-a]pyrimidine-3-carboxamide] here?
Answer: + (Compounds with a Cisplatin sensitization value >0.2 μM but <5 μM are marked with “+.”)

Question: `Nc1nn2cc(Cl)cnc2c1C(=O)Nc1cnccc1OC1CC2(CNC2)C1` [I-O-72, N-(4-(2-azaspiro[3.3]heptan-6-yloxy)pyridin-3-yl)-2-amino-6-chloropyrazolo[1,5-a]pyrimidine-3-carboxamide] was tested. Which “Cisplatin Sensitization Assay” value did it give?
Answer: + (Compounds with a Cisplatin sensitization value >0.2 μM but <5 μM are marked with “+.”)

Question: How did the “Cisplatin Sensitization Assay” value turn out when `Nc1nn2cc(Cl)cnc2c1C(=O)Nc1cnccc1OC1CNC1` [I-O-73, 2-amino-N-(4-(azetidin-3-yloxy)pyridin-3-yl)-6-chloropyrazolo[1,5-a]pyrimidine-3-carboxamide] was run?
Answer: + (Compounds with a Cisplatin sensitization value >0.2 μM but <5 μM are marked with “+.”)

Question: For `Nc1nn2cc(Cl)cnc2c1C(=O)Nc1cnccc1O[C@H]1CCCNC1` [I-O-74, (S)-2-amino-6-chloro-N-(4-(piperidin-3-yloxy)pyridin-3-yl)pyrazolo[1,5-a]pyrimidine-3-carboxamide], which “Cisplatin Sensitization Assay” value is on record?
Answer: ++ (Compounds with a Cisplatin sensitization value >0.02 μM but <0.2 μM are marked with “++.”)
